Here are results for seven molecules from paper PMC6773865, “Functional recruitment of dynamin requires multimeric interactions for efficient endocytosis” (Nature Communications, 2019).

Where no end group is shown, it is not given here.

The target of experiment [1] is GST-amphSH3 (SH3 domain of murine amphiphysin1 fused to glutathione S-transferase) (not stated | murine) (UniProt Q7TQF7). Nature of the experiment: SEC; analytical size exclusion chromatography, Superdex200 Increase 10/300 GL, PBS + 0.01% Tween-20, 0.75 mL/min. (In gel filtration, larger molecules generally elute earlier.)
Experiment [2] deals with dD15-N (divalent peptide: two D15 motifs linked through their N termini by PEG linkers). The experiment in a line: SPR; biotinylated peptides immobilised (50-90 RU) on biotin CAPture chips, GST-amphSH3 or Ntr-bSUMO-amphSH3 as analyte; 25 °C; 10 mM sodium phosphate pH 7.4, 150 mM NaCl, 0.01% Tween-20; single cycle kinetics, 1:1 Langmuir fit, estimated KDs.
Experiment [3] relates to membrane capacitance of NIH 3T3 cells (balance between exocytosis and endocytosis). Nature of the experiment: Cell capacitance in whole cell patch-clamp. In kind it is cell-based. To be noted: 10th minute over 1st minute of whole cell recording; peptides 1 mM; paired t-test. The protocol: Cells were patched with pipettes made of borosilicate glass (GC150F, Harvard Apparatus) and pulled with a vertical Narishige puller (World Precision Instruments). The solution contained (in mM): 130–140 KCH3SO3, 1 EGTA, 0.1 CaCl2, 10–20 HEPES, 4 ATP (sodium or magnesium salt), 0.4 Na-GTP (or GTPγS when indicated), 5 phosphocreatine and 3 sodium ascorbate. pH was adjusted to 7.2 using KOH and osmolarity to ~300 mOsm L^−1. Sodium ascorbate was omitted in earlier recordings but was added for better stability. Chloride ions either came from 2 mM KCl, 10 mM NaCl or 4 mM MgCl2 (when Na-ATP was used) in various trials. All salts were purchased from Sigma-Aldrich. Cells were voltage-clamped at −60 mV with an EPC10 amplifier (HEKA) with series resistance and cell capacitance estimation every 4 s in the whole cell mode. The digital triggers of the amplifier were used to drive the electrovalves for pH changes. Cell viability and dialysis efficiency were made sure of by monitoring […] throughout the recording using the Patchmaster software (HEKA): series resistance should remain below 10 MΩ and holding current should remain above −100 pA. If either of these criteria was not respected (except holding current for recordings in GTPγS, see Supplementary Fig. 3D), the recording was not considered for analysis. On a given experimental day at least one control recording (i.e. without any peptide) was performed to ensure recording quality. All these recordings were pooled in the ‘control’ condition (n = 63 on 42 experimental days). […]
Supplementary Figure 5: Characteristics of the whole cell recordings in the different conditions of this study. A, Scheme of the equivalent electrical circuit of a cell recorded in the whole cell configuration. […]
This is likely due to the activation of GTP dependent trimeric G proteins which activate various channels in the presence of GTPγS, thereby increasing the holding current. […] F, Ratios of Cm recorded during the 10 th minute of recording over Cm recorded during the 1st minute. […]
A general note: Patch clamp records ionic current or voltage across a cell membrane.

Experiment [4] has as its system clathrin mediated endocytosis (TfR-SEP) in NIH 3T3 cells. Nature of the experiment: ppH assay combined with patch-clamp dialysis. The format is cell-based. To be noted: for event frequency ratio f = FWC/FCA: average ± SEM, SEM. Here is the method:
To do so, we monitored cellular endocytic activity using the ppH assay with new developments for fully automated analysis on a large number of cells (See “Methods” and Supplementary Fig. 4). We combined this assay, which monitors in real time the endocytic activity of cells, with the patch-clamp technique in order to dialyse the relevant peptide at a known concentration inside the cellular cytoplasm to inhibit endocytosis acutely. Each recording consisted of 5 min in cell-attached mode (CA) with no dialysis followed by 10 min in whole cell mode (WC) during which the inhibitors were dialysed (Fig. 5a, b). Each recording therefore had its own internal control condition, i.e., the cell-attached mode, from which we obtained the frequency ratio f = FWC/FCA, where F is the event frequency recorded during the indicated mode. Of note, the electrical parameters of patch clamp recordings were similar in all conditions (Supplementary Fig. 5). To assess the innocuousness of this assay, we monitored the endocytic activity of unperturbed cells vs. cells dialysed with a control solution (see methods for composition). Patching the cells minimally affected their endocytic activity over a 10 min period (event frequency f = 67.3 ± 4.3%, n = 60, vs. 90.7 ± 14.9% in no patching recordings, n = 8, p = 0.58).
NIH 3T3 cells (ECACC 93061524) were cultured in DMEM supplemented with 1% sodium pyruvate, 1% glutamax and 10% fetal calf serum (Invitrogen). Cells were incubated at 37 °C in 5% CO2 until use and subcultured every 2 to 4 days for maintenance up to passage 20. Cells were transfected with 1.5 μg of TfR-SEP plasmid 24 h prior to imaging and patch clamp. Care was taken to find the right balance between sufficient fluorescent signal to allow for proper imaging and reasonable overexpression to diminish potential saturation artefacts. Best results were obtained using Fugene 6 (Promega) as the transfection reagent but Lipofectamine 2000 (Invitrogen) has also been used in this study due to a temporary arrest of Fugene 6 production by the provider. All transfections were performed according to the manufacturers’ recommendations. Four to eight hours after transfection, cells were seeded at a density of ~70,000 cells ml^−1 on 18 mm glass coverslips coated with poly-L-lysine (3 min application of 0.1 mM polylysine (Sigma P2636) in borate buffer, pH 8.0 followed by a quick rinse in PBS) and used the next day.
Fast solution exchange was controlled by electro-valves (Lee company) connected to a theta glass pipette (TG150, Harvard Apparatus) pulled to ∼100-μm tip size using a vertical puller (Narishige, World Precision Instruments) placed above the recorded cell. Cells were alternatively perfused with HEPES or MES buffered saline solutions (HBS/MBS) containing (in mM): 135 NaCl, 5 KCl, 0.4 MgCl2, 1.8 CaCl2, 1 D-glucose and 20 HEPES or MES. The pH was adjusted to 7.4 or 5.5 using NaOH and osmolarity to 310–315 mOsm L^−1 with NaCl.
Cells were patched with pipettes made of borosilicate glass (GC150F, Harvard Apparatus) and pulled with a vertical Narishige puller (World Precision Instruments). The solution contained (in mM): 130–140 KCH3SO3, 1 EGTA, 0.1 CaCl2, 10–20 HEPES, 4 ATP (sodium or magnesium salt), 0.4 Na-GTP (or GTPγS when indicated), 5 phosphocreatine and 3 sodium ascorbate. pH was adjusted to 7.2 using KOH and osmolarity to ~300 mOsm L^−1. Sodium ascorbate was omitted in earlier recordings but was added for better stability. Chloride ions either came from 2 mM KCl, 10 mM NaCl or 4 mM MgCl2 (when Na-ATP was used) in various trials. All salts were purchased from Sigma-Aldrich. Cells were voltage-clamped at −60 mV with an EPC10 amplifier (HEKA) with series resistance and cell capacitance estimation every 4 s in the whole cell mode. The digital triggers of the amplifier were used to drive the electrovalves for pH changes. […]

The subject of experiment [5] is β2 adrenergic receptor internalization in BSC-1 cells. Nature of the experiment: β adrenergic receptor internalization assay, β2AR. In kind it is cell-based. To be noted: 30 µM, 20 min pre-treatment, isoproterenol-induced.
In experiment [6] the test system is uptake of cholera toxin B. The format is cell-based.
A further experiment has as its system uptake of shiga toxin B. In kind it is cell-based.
In experiment [7] the test system is β1 adrenergic receptor internalization in BSC-1 cells. Nature of the experiment: β adrenergic receptor internalization assay, β1AR. To be noted: 30 µM, 20 min pre-treatment, isoproterenol-induced. In kind it is cell-based.
In experiment [8] the target is T1, SUMO-amphSH3 (SH3 domain of murine amphiphysin1 fused to the small ubiquitin-like modifier) (murine, UniProt Q7TQF7 607-686).
T1 construct: amphiphysin 1, mouse, SH3 domain, residues 607-686, subcloned from pAmph1-mCherry into a modified pET-SUMO vector with a TEV site after the SUMO tag; A TEV cleavage site and multiple cloning site lie between SUMO and the SH3 domain; Monomer by SEC; also called SUMO-SH3; monomeric amphSH3; source: E. coli BL21-CodonPlus (DE3)-RIPL, auto-induction at 16 °C, purified (Ni-NTA, SEC); not shown: SUMO, …
T1 sequence (looked up): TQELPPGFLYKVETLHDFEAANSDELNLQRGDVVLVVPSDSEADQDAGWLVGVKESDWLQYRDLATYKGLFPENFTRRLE
Nature of the experiment: SPR; biotinylated peptides immobilised (50-90 RU) on biotin CAPture chips, SUMO-amphSH3 as analyte; 25 °C; 10 mM sodium phosphate pH 7.4, 150 mM NaCl, 0.01% Tween-20; steady-state (equilibrium) analysis. To be noted: both partners purified.

Experiment [9] deals with dD15-N (divalent peptide: two D15 motifs linked through their N termini by PEG linkers). The description is as above.
Experiment [10] shares this target. The description is as above. The source holds these as a separate data set.
Experiment [11] concerns the target D44 peptide (derived from the dynamin1 PRD, bears motifs A and B). The description is as above.

Take “GST-amphSH3 (SH3 domain of murine amphiphysin1 fused to glutathione S-transferase) (from UniProt Q7TQF7 607-686) (domain or fragment)”: the stoichiometry N (commonly the number of molecules, sites or subunits per partner or assembly) in [1] is 2. In addition, the Kd (usually the constant that tells how readily two partners part at equilibrium) in [2] was 0.509 µM.

Take “Ntr-bSUMO-amphSH3 complex (biotinylated SUMO-amphSH3 bound to tetrameric neutravidin) (from UniProt Q7TQF7 607-686)”: the dissociation constant Kd in experiment [2] is 0.0045 µM.

For the molecule “Ac-YALGGAPPVPSRPGASPDPFGPPPQVPSRPNRAPPGVPRITISDP-NH2 (N-terminus and C-terminus assumed) [D44]”, in experiment [3], the “change of Cm, Cm(10')/Cm(1')” value is listed as “no significant decrease in Cm”. Also, the “event frequency ratio f = FWC/FCA” value amounted to 41.4 ± 9.6% in experiment [4] (100 µM peptide in patch pipette, event frequency 8–10 min whole cell over 3–5 min cell attached, same cell, n = 13 (D15)) and 20.6 ± 5.2% in experiment [4] (1 mM peptide in patch pipette, event frequency 8–10 min whole cell over 3–5 min cell attached, same cell, n = 22 (D15), 15 (D44), 6 (dD15-C)). For the same molecule, the “inhibition of endocytosis on dialysis” value in [4] (peptide dialysed through patch pipette, 3T3 cells, ppH assay) is on record as “fully inhibited CCV formation”.

On to `Nc1nc2c(ncn2[C@@H]2O[C@H](COP(=O)(O)OP(=O)(O)OP(O)(O)=S)[C@@H](O)[C@H]2O)c(=O)[nH]1` [GTPγS, reference compound], for which, in [3], the “change of Cm, Cm(10')/Cm(1')” value is recorded as “no significant decrease in Cm”. The “event frequency ratio f = FWC/FCA” value in [4] (GTP replaced by GTPγS in the pipette solution, n = 4) is recorded as 11.2 ± 4.1%.

Turning to `O=C(N/N=C/c1cc(O)c(O)cc1O)c1cc2ccccc2cc1O` [Dyngo4a], the “effect on β2AR internalization” value in experiment [5] is recorded as “fully block”. Besides, the “inhibition of cholera toxin B uptake” value in experiment [6] is on record as “only partially sensitive to inhibition”. Also, the “inhibition of shiga toxin B uptake” value with uptake of shiga toxin B was “only partially sensitive to inhibition”. For the same molecule, in [7], the “effect on β1AR internalization” value was “fully block”.

B1: D15 peptide (monovalent, from the dynamin1 PRD, holds motif B) (peptide)
chain: PPPQVPSRPNRAPPG-NH2
modifications: also: N-terminal biotin via TTDS spacer (biotinylated form) or N-terminal acetyl (form used in cells)
The molecule B1 registered a dissociation constant Kd in [8] of 102 ± 2 µM.

B2: SUMO-amphSH3 (SH3 domain of murine amphiphysin1 fused to the small ubiquitin-like modifier) (domain or fragment)
chain: TQELPPGFLYKVETLHDFEAANSDELNLQRGDVVLVVPSDSEADQDAGWLVGVKESDWLQYRDLATYKGLFPENFTRRLE
For B2, the Kd was found to be 65 µM in experiment [9], 66 µM in experiment [10] and 37 µM in [11].
